In publication PMC7946963, “Phosphorylation regulates the binding of autophagy receptors to FIP200 Claw domain for selective autophagy initiation” (Nature Communications, 2021):
Peptide text beside a SMILES is read from it.

Columns and labels:
[1] = target: T1, FIP200 Claw domain (residues 1490–1594) (Homo sapiens, UniProt Q8TDY2); assay: Fluorescence polarization (FP) binding assay, FITC-peptide titrated with FIP200 Claw; conditions: N-terminally FITC-labeled peptide (~0.25 μM) titrated with FIP200 Claw (residues 1490–1594), 20 mM Tris pH 7.9, 100 mM NaCl, 1 mM DTT, 25 °C, one-site binding model, performed in triplicate, read-out: Kd (fitted dissociation constant with standard error)
T1 construct: N-terminal Trx-tag/His6-tag or His6-tag/SUMO-tag (vector for this fragment not specified) (N, cleaved yes); made in house; host or cells: E. coli BL21 (DE3)
T1 sequence (Q8TDY2 1490-1594): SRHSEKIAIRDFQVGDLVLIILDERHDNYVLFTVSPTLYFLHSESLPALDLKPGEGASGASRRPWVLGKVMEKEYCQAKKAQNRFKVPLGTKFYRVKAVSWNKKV
Procedure: Fluorescence anisotropy binding assays were performed on the SpectraMax i3x Multi-Mode Detection Platform from Molecular Devices, using a 485 nm excitation filter and a 535 nm emission filter. Peptides were labeled with fluorescein isothiocyanate isomer I (Sigma-Aldrich) at their N-terminals. […] The Kd values were obtained by fitting the titration curves with the classical one-site binding model using GraphPad Prism 6 software.

[2] = system: different ATG8 proteins (LC3A, LC3B, LC3C, GABARAP, GABARAPL1, GABARAPL2); assay: ITC-based measurements of ATG16L1 FIR with ATG8 proteins; conditions: one-site binding model, peer review file figure
[3] = system: all six mammalian ATG8 orthologues; assay: Analytical gel filtration chromatography, statement over all ATG8 orthologues; format: binding; conditions: qualitative analytical gel filtration chromatography; Supplementary Figs. 20 and 21
Procedure: (§1) Purified proteins were loaded on to a […] 10/300 GL column (GE Healthcare) equilibrated with a buffer containing 20 mM Tris-HCl (pH 7.9), 100 mM NaCl and 1 mM DTT. Analytical gel filtration chromatography was carried out on an AKTA FPLC system (GE Healthcare). The fitting results were further output to the Origin 8.5 software and aligned with each other.

[4] = system: FIP200 Claw (FIP200(1450–1594)); assay: Analytical gel filtration chromatography with FIP200 Claw; format: binding, human; conditions: for interaction of CCPG1 FIR2 variant with FIP200 Claw (in words): analytical gel filtration chromatography and fluorescence spectroscopy-based analyses, Supplementary Fig. 10; for effect of point mutation in Optineurin(169–185) S177E on the interaction with FIP200 (in words): analytical gel filtration chromatography, Supplementary Fig. 16; for interaction of Optineurin fragment with FIP200 (in words): analytical gel filtration chromatography with FIP200(1450–1594), Fig. 3b, c, Supplementary Fig. 15
Procedure: as §1

[5] = system: FIP200 Claw F1574Q mutant; assay: Analytical gel filtration chromatography with FIP200 F1574Q mutant; format: binding, human; conditions: Supplementary Fig. 16
Procedure: as §1

[6] = system: FIP200 Claw Y1564S mutant; assay: Analytical gel filtration chromatography with FIP200 Y1564S mutant; format: binding, human; conditions: Supplementary Fig. 16
Procedure: as §1

[7] = system: FIP200 Claw R1573E mutant; assay: Analytical gel filtration chromatography with FIP200 R1573E mutant; format: binding, human; conditions: Supplementary Fig. 16
Procedure: as §1

[8] = system: FIP200 Claw K1569A mutant; assay: Analytical gel filtration chromatography with FIP200 K1569A mutant; format: binding, human; conditions: Supplementary Fig. 16
Procedure: as §1

[9] = system: FIP200 Claw; conditions: cited from earlier work
Text: Previous studies have well established a critical role of the FIP200 subunit in the ULK complex for associating with other autophagic factors, especially some autophagy receptors such as CCPG1, NDP52, and P62[30],[49]–[51].

## CC[C@H](C)[C@H](NC(=O)[C@H](CCC(=O)O)NC(=O)[C@@H](NC(=O)[C@H](Cc1ccccc1)NC(=O)[C@H](COP(=O)(O)O)NC(=O)[C@H](CC(=O)O)NC(=O)[C@H](CCC(=O)O)NC(=O)[C@H](CO)NC(=O)[C@@H](N)CO)C(C)C)C(=O)N[C@@H](CCCNC(=N)N)C(=O)N[C@@H](CCSC)C(=O)N[C@@H](C)C(=O)N[C@@H](CCC(=O)O)C(=O)O [p-Optineurin LIR] (HELM PEPTIDE1{S.S.E.D.[O=C([C@H](COP(=O)(O)O)N[*:1])[*:2]].F.V.E.I.R.M.A.E}$$$$V2.0)
[1]
  Kd: 11.5 ± 1.74 µM

## ATG16L1 FIR: ATG16L1 FIR (residues 235-247), FIP200-interacting region of ATG16L1 (EQDDDIEVIVDET; UniProt Q676U5 235-247, looked up, fragment)
[2]
  binding to different ATG8 proteins (in words): can directly bind

## CCPG1 FIR2 S104E: recombinant phosphomimetic S104E mutant of CCPG1 FIR2 (residues 99–113) (TASDDEDIVTLEPPK)
[3]
  interaction with all six mammalian ATG8 orthologues (in words): can directly interact
[4]
  interaction of CCPG1 FIR2 variant with FIP200 Claw (in words): good abilities to interact

## D105A: D105A point mutant of CCPG1 FIR2 (TASDDSAIVTLEPPK)
[4]
  interaction of CCPG1 FIR2 variant with FIP200 Claw (in words): significantly decrease or essentially disrupt

## D176R: D176R mutation of the phosphomimetic Optineurin(169–185) S177E mutant (NSSGSSEREFVEIRMAE)
[4]
  effect of point mutation in Optineurin(169–185) S177E on the interaction with FIP200 (in words): significantly attenuate or completely abolish

## F178Q: F178Q mutation of the phosphomimetic Optineurin(169–185) S177E mutant (NSSGSSEDEQVEIRMAE)
[4]
  effect of point mutation in Optineurin(169–185) S177E on the interaction with FIP200 (in words): significantly attenuate or completely abolish

## I106S: I106S point mutant of CCPG1 FIR2 (TASDDSDSVTLEPPK)
[4]
  interaction of CCPG1 FIR2 variant with FIP200 Claw (in words): significantly decrease or essentially disrupt

## L109A: L109A point mutant of CCPG1 FIR2 (TASDDSDIVTAEPPK)
[4]
  interaction of CCPG1 FIR2 variant with FIP200 Claw (in words): significantly decrease or essentially disrupt

## Optineurin(33–168): recombinant human Optineurin fragment, residues 33–168
[4]
  interaction of Optineurin fragment with FIP200 (in words): no obvious interactions

## Optineurin(169–185) S177E: recombinant phosphomimetic S177E mutant of Optineurin(169–185) that solely includes the LIR motif (NSSGSSEDEFVEIRMAE; UniProt Q96CV9 169-185, looked up, variant S177E)
[5]
  interaction with FIP200 F1574Q mutant compared with wild type (in words): significantly attenuate or completely abolish
[6]
  interaction with FIP200 Y1564S mutant compared with wild type (in words): significantly attenuate or completely abolish
[7]
  interaction with FIP200 R1573E mutant compared with wild type (in words): significantly attenuate or completely abolish
[8]
  interaction with FIP200 K1569A mutant compared with wild type (in words): significantly attenuate or completely abolish
[4]
  interaction of Optineurin fragment with FIP200 (in words): can specifically interact

## Optineurin(186–209): recombinant human Optineurin fragment, residues 186–209
[4]
  interaction of Optineurin fragment with FIP200 (in words): no obvious interactions

## T108A: T108A point mutant of CCPG1 FIR2 (TASDDSDIVALEPPK)
[4]
  interaction of CCPG1 FIR2 variant with FIP200 Claw (in words): significantly decrease or essentially disrupt

## p-Optineurin(33–209): Optineurin(33–209) fragment phosphorylated in vitro by TBK1
[4]
  interaction of Optineurin fragment with FIP200 (in words): much stronger binding ability

## phosphomimetic quadruple mutations (S349D, S365D, S366D, and S370D) of P62: P62 with phosphomimetic S349D, S365D, S366D, S370D mutations, from ref 49
[9]
  enhancement of the binding affinity of P62 for FIP200 Claw by phosphomimetic mutations: roughly by twofold
